± gives the standard deviation of the averaged measurements.
Key:
Details in all cases: treatment time: 3 days
UT-SCC-40 [1] = experiment: maximal % inhibition of viability relative to DMSO; higher = stronger effect
Method: (§1)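 HNSCC cell lines (500 cells/well, 384-well) were cultured on plastic, on top of (2D) or embedded (3D) in Matrigel or human leiomyoma matrix Myogel (500 ug/mL; Myogel 3D mixed with rat collagen I). Cells were treated for 3 days with 5 ten-fold concentrations of each drug, and viability was read by CellTiter-Glo. Viability was normalised to DMSO and benzethonium chloride controls and fitted with the FIMM DSRT pipeline to give IC50 (nM), maximal % inhibition and DSS. Suffixes _1/_2/_3 are replicates. Only inhibition-mode (IC50) fits are kept.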

UT-SCC-24B = experiment: as above
Method: as §1

UT-SCC-42B [2] = experiment: as above
Method: as §1

UT-SCC-73 [3] = experiment: as above
Method: as §1

UT-SCC-8 [4] = experiment: as above
Method: as §1

UT-SCC-28 [5] = experiment: as above
Method: as §1

UT-SCC-81 [6] = experiment: as above
Method: as §1

UT-SCC-44 [7] = experiment: as above
Method: as §1

UT-SCC-14 = experiment: as above
Method: as §1

UT-SCC-106A [8] = experiment: as above
Method: as §1

UT-SCC-42A [9] = experiment: as above
Method: as §1

UT-SCC-40 [10] = experiment: drug sensitivity score (DSS); higher = more sensitive; extreme values may be limits of the assay
Procedure, shortened: (§2)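 Three growth formats were used for HPV-negative HNSCC cell lines in 384-well plates at 500 cells/well: bare plastic, wells coated with Matrigel or Myogel (500 µg/mL), and embedding in Matrigel or Myogel plus rat collagen I. Compounds were added at five 10-fold concentrations, and after 3 days CellTiter-Glo 2.0 luminescence was recorded and normalised to vehicle (0.1% DMSO) and cell-killing control wells. IC50, maximal inhibition and drug sensitivity score came from percent-inhibition dose–response fitting in the FIMM pipeline.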

UT-SCC-42B [11] = experiment: as above
Procedure, shortened: as §2

UT-SCC-73 [12] = experiment: as above
Procedure, shortened: as §2

UT-SCC-8 [13] = experiment: as above
Procedure, shortened: as §2

UT-SCC-28 [14] = experiment: as above
Procedure, shortened: as §2

UT-SCC-81 [15] = experiment: as above
Procedure, shortened: as §2

UT-SCC-44 [16] = experiment: as above
Procedure, shortened: as §2

UT-SCC-106A [17] = experiment: as above
Procedure, shortened: as §2

UT-SCC-42A [18] = experiment: as above
Procedure, shortened: as §2

[19] = culture condition: embedded in Matrigel
[20] = culture condition: embedded in Myogel + collagen I
[21] = culture condition: on top of Matrigel
[22] = culture condition: on top of Myogel
[23] = culture condition: plastic 2D (no matrix)

Cn1c(=O)c(F)c(Nc2ccc(I)cc2F)c2c(=O)n(C[C@@H](O)CO)cnc21 [TAK-733]
maximal % inhibition of viability (UT-SCC-40 [1]; [19]): 78.2 ± 1.2%
maximal % inhibition of viability (UT-SCC-40 [1]; [20]): 64 ± 2.1%
maximal % inhibition of viability (UT-SCC-40 [1]; [21]): 72.9 ± 2.1%
maximal % inhibition of viability (UT-SCC-40 [1]; [22]): 51 ± 0.89%
maximal % inhibition of viability (UT-SCC-40 [1]; [23]): 53.7 ± 0.74%
maximal % inhibition of viability (UT-SCC-24B; [19]): 67.3 ± 1.5%
maximal % inhibition of viability (UT-SCC-24B; [20]): 67.2 ± 1.2%
maximal % inhibition of viability (UT-SCC-24B; [21]): 64.3 ± 1.3%
maximal % inhibition of viability (UT-SCC-24B; [22]): 55.5 ± 2.2%
maximal % inhibition of viability (UT-SCC-24B; [23]): 79.9 ± 1.1%
maximal % inhibition of viability (UT-SCC-42B [2]; [19]): 71.3 ± 7.9%
maximal % inhibition of viability (UT-SCC-42B [2]; [21]): 54 ± 1.3%
maximal % inhibition of viability (UT-SCC-42B [2]; [22]): 30.2 ± 3.9%
maximal % inhibition of viability (UT-SCC-42B [2]; [23]): 38.4 ± 5.8%
maximal % inhibition of viability (UT-SCC-73 [3]; [19]): 79.1 ± 1.5%
maximal % inhibition of viability (UT-SCC-73 [3]; [20]): 48.3 ± 16%
maximal % inhibition of viability (UT-SCC-73 [3]; [21]): 74.1 ± 1%
maximal % inhibition of viability (UT-SCC-73 [3]; [22]): 59.9 ± 4.8%
maximal % inhibition of viability (UT-SCC-73 [3]; [23]): 68.4 ± 3.9%
maximal % inhibition of viability (UT-SCC-8 [4]; [19]): 74.4 ± 12%
maximal % inhibition of viability (UT-SCC-8 [4]; [20]): 35.5 ± 26%
maximal % inhibition of viability (UT-SCC-8 [4]; [21]): 65.3 ± 12%
maximal % inhibition of viability (UT-SCC-8 [4]; [22]): 46.8 ± 21%
maximal % inhibition of viability (UT-SCC-8 [4]; [23]): 56.1 ± 17%
maximal % inhibition of viability (UT-SCC-28 [5]; [19]): 36.6 ± 7.2%
maximal % inhibition of viability (UT-SCC-28 [5]; [20]): 22.7 ± 21%
maximal % inhibition of viability (UT-SCC-28 [5]; [21]): 41.5 ± 1.7%
maximal % inhibition of viability (UT-SCC-28 [5]; [23]): 25.6 ± 1%
maximal % inhibition of viability (UT-SCC-81 [6]; [19]): 87.1 ± 4%
maximal % inhibition of viability (UT-SCC-81 [6]; [20]): 25 ± 12%
maximal % inhibition of viability (UT-SCC-81 [6]; [21]): 71.5 ± 6%
maximal % inhibition of viability (UT-SCC-81 [6]; [22]): 24.3 ± 5.5%
maximal % inhibition of viability (UT-SCC-81 [6]; [23]): 36.4 ± 2.3%
maximal % inhibition of viability (UT-SCC-44 [7]; [19]): 75.4 ± 0.62%
maximal % inhibition of viability (UT-SCC-44 [7]; [20]): 37.1 ± 8.1%
maximal % inhibition of viability (UT-SCC-44 [7]; [21]): 64.6 ± 10%
maximal % inhibition of viability (UT-SCC-44 [7]; [22]): 38.3 ± 4.8%
maximal % inhibition of viability (UT-SCC-44 [7]; [23]): 53.6 ± 3.3%
maximal % inhibition of viability (UT-SCC-14; [19]): 42.3 ± 17%
maximal % inhibition of viability (UT-SCC-14; [20]): 31.8 ± 2.2%
maximal % inhibition of viability (UT-SCC-14; [21]): 33.3 ± 3.4%
maximal % inhibition of viability (UT-SCC-14; [22]): 28.6 ± 2.2%
maximal % inhibition of viability (UT-SCC-14; [23]): 20.4 ± 13%
maximal % inhibition of viability (UT-SCC-106A [8]; [19]): 52.3 ± 2.4%
maximal % inhibition of viability (UT-SCC-106A [8]; [20]): 19 ± 5.5%
maximal % inhibition of viability (UT-SCC-106A [8]; [21]): 61.9 ± 4.9%
maximal % inhibition of viability (UT-SCC-106A [8]; [22]): 17.8 ± 1.7%
maximal % inhibition of viability (UT-SCC-106A [8]; [23]): 63.4 ± 1.2%
maximal % inhibition of viability (UT-SCC-42A [9]; [19]): 57.9 ± 2.6%
maximal % inhibition of viability (UT-SCC-42A [9]; [20]): 41.5 ± 27%
maximal % inhibition of viability (UT-SCC-42A [9]; [21]): 59.9 ± 5.2%
maximal % inhibition of viability (UT-SCC-42A [9]; [22]): 42.1 ± 5.3%
maximal % inhibition of viability (UT-SCC-42A [9]; [23]): 52.7 ± 3.6%
drug sensitivity score (UT-SCC-40 [10]; [19]): 24 ± 0.56 DSS
drug sensitivity score (UT-SCC-40 [10]; [20]): 16.2 ± 2.5 DSS
drug sensitivity score (UT-SCC-40 [10]; [21]): 20.2 ± 1.5 DSS
drug sensitivity score (UT-SCC-40 [10]; [22]): 10 ± 0.56 DSS
drug sensitivity score (UT-SCC-40 [10]; [23]): 11.6 ± 1.3 DSS
drug sensitivity score (UT-SCC-42B [11]; [19]): 24.1 ± 2.8 DSS
drug sensitivity score (UT-SCC-42B [11]; [21]): 12.4 ± 1.9 DSS
drug sensitivity score (UT-SCC-42B [11]; [22]): 2.6 ± 0.1 DSS
drug sensitivity score (UT-SCC-42B [11]; [23]): 6.27 ± 1.4 DSS
drug sensitivity score (UT-SCC-73 [12]; [19]): 24.7 ± 0.5 DSS
drug sensitivity score (UT-SCC-73 [12]; [20]): 13.8 ± 6 DSS
drug sensitivity score (UT-SCC-73 [12]; [21]): 21.4 ± 1.6 DSS
drug sensitivity score (UT-SCC-73 [12]; [22]): 12.9 ± 0.38 DSS
drug sensitivity score (UT-SCC-73 [12]; [23]): 17.5 ± 1.3 DSS
drug sensitivity score (UT-SCC-8 [13]; [19]): 13.6 ± 2.6 DSS
drug sensitivity score (UT-SCC-8 [13]; [20]): 2.3 ± 2.6 DSS
drug sensitivity score (UT-SCC-8 [13]; [21]): 8.03 ± 4.5 DSS
drug sensitivity score (UT-SCC-8 [13]; [22]): 7.53 ± 4.9 DSS
drug sensitivity score (UT-SCC-8 [13]; [23]): 7.07 ± 2.1 DSS
drug sensitivity score (UT-SCC-28 [14]; [19]): 9.3 ± 2.7 DSS
drug sensitivity score (UT-SCC-28 [14]; [20]): 0.8 ± 1.4 DSS
drug sensitivity score (UT-SCC-28 [14]; [21]): 10.8 ± 2.5 DSS
drug sensitivity score (UT-SCC-28 [14]; [23]): 5 ± 1.4 DSS
drug sensitivity score (UT-SCC-81 [15]; [19]): 28.8 ± 3.6 DSS
drug sensitivity score (UT-SCC-81 [15]; [20]): 3.93 ± 2.7 DSS
drug sensitivity score (UT-SCC-81 [15]; [21]): 19.6 ± 1.2 DSS
drug sensitivity score (UT-SCC-81 [15]; [22]): 2.63 ± 2.3 DSS
drug sensitivity score (UT-SCC-81 [15]; [23]): 2.9 ± 0.17 DSS
drug sensitivity score (UT-SCC-44 [16]; [19]): 21.6 ± 1.5 DSS
drug sensitivity score (UT-SCC-44 [16]; [20]): 3.67 ± 1.4 DSS
drug sensitivity score (UT-SCC-44 [16]; [21]): 14.8 ± 1.2 DSS
drug sensitivity score (UT-SCC-44 [16]; [22]): 5.27 ± 2.8 DSS
drug sensitivity score (UT-SCC-44 [16]; [23]): 12.9 ± 0.4 DSS
drug sensitivity score (UT-SCC-106A [17]; [19]): 16.8 ± 1.1 DSS
drug sensitivity score (UT-SCC-106A [17]; [20]): 1.2 ± 0.56 DSS
drug sensitivity score (UT-SCC-106A [17]; [21]): 18.7 ± 0.38 DSS
drug sensitivity score (UT-SCC-106A [17]; [22]): 1.07 ± 1.1 DSS
drug sensitivity score (UT-SCC-106A [17]; [23]): 19 ± 1.2 DSS
drug sensitivity score (UT-SCC-42A [18]; [19]): 16.7 ± 2 DSS
drug sensitivity score (UT-SCC-42A [18]; [20]): 8.73 ± 7.5 DSS
drug sensitivity score (UT-SCC-42A [18]; [21]): 16 ± 1.3 DSS
drug sensitivity score (UT-SCC-42A [18]; [22]): 9.63 ± 2.4 DSS
drug sensitivity score (UT-SCC-42A [18]; [23]): 11.4 ± 1.6 DSS
